The text below walks through data of PubChem BioAssay (NCI).

Among the test systems are HS 578T breast; COLO 205 colon; U251 CNS; OVCAR-3 ovarian; MALME-3M melanoma; HCC-2998 colon; EKVX NSCLC; NCI-H522 lung; NCI-H460 lung; LOX IMVI melanoma.
Common to all, as to experiment: NCI tumour cell line growth inhibition, 48 h

The structures appear in SMILES notation. Where “and” joins values, the source holds several entries; their conditions need not be identical. Equal values may be shown once.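 1) Cells in 96-well plates. 2) Compound, 48 h, 5 concentrations. 3) Linear interpolation between surrounding doses. 4) Unreached endpoint = highest concentration. Abbreviation: GI50, concentration required for 50% inhibition of growth. TGI marks complete inhibition of growth.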

Turning to `CC(=O)c1c[nH]c2ccc(-c3ccnc(Nc4ccc(NC(=O)c5cccc(F)c5)c(CN5CCOCC5)c4)n3)cc12`, the GI50 is 0.124 µM with HS 578T breast; 0.0637 µM in the assay on COLO 205 colon; 0.218 µM in the assay with U251 CNS; 0.0955 µM with OVCAR-3 ovarian; 0.254 µM in the assay on MALME-3M melanoma; 0.292 µM with HCC-2998 colon. In addition, the GI50 in the assay with EKVX NSCLC was 0.239 µM; with NCI-H522 lung, 0.234 µM; with NCI-H460 lung, 0.176 µM; in the assay on LOX IMVI melanoma it was 0.0604 µM. The TGI in the assay on HS 578T breast is 1.02 µM; in the assay with COLO 205 colon, 0.317 µM; in the assay with U251 CNS, over 21 µM; in the assay with OVCAR-3 ovarian, 0.932 µM; with MALME-3M melanoma, 0.749 µM; with HCC-2998 colon it was 16.6 µM. Moreover, the TGI stood at 1.52 µM in the assay on EKVX NSCLC, 1.61 µM with NCI-H522 lung and 0.45 µM with LOX IMVI melanoma.

As for `O=C(NCCc1ccccc1)C(c1csc2ccccc12)N(C(=O)CCl)c1ccc(-c2cnco2)cc1` (stereo unspecified), the GI50 in the assay on HS 578T breast is 1.44 µM; in the assay on COLO 205 colon, 1.56 µM; in the assay with U251 CNS, 0.163 µM; in the assay on OVCAR-3 ovarian, 0.156 µM; in the assay on MALME-3M melanoma, 0.146 µM; in the assay on HCC-2998 colon, 1.69 µM. Besides, the GI50 in the assay with EKVX NSCLC is 0.543 µM; with NCI-H522 lung, 0.0134 µM; with NCI-H460 lung, 0.631 µM; in the assay on LOX IMVI melanoma, under 0.01 µM. In addition, the TGI stood at 7.2 µM with HS 578T breast; 3.28 µM with COLO 205 colon; 0.644 µM with U251 CNS; 0.828 µM in the assay on OVCAR-3 ovarian; 0.308 µM in the assay on MALME-3M melanoma; 3.22 µM in the assay on HCC-2998 colon. In addition, the TGI in the assay on EKVX NSCLC was found to be 2.3 µM; with NCI-H522 lung, 0.0295 µM.

Turning to `CN1CCN(c2nc(C3=C(c4c[nH]c5ccccc45)C(=O)NC3=O)c3ccccc3n2)CC1`, the GI50 in the assay on HS 578T breast is 9.01 µM and 14.6 µM; in the assay on COLO 205 colon it was 8 µM and 11.4 µM; in the assay on U251 CNS, 22.5 µM and 13.4 µM; in the assay with OVCAR-3 ovarian, 16.2 µM and 19.4 µM; with MALME-3M melanoma, 10 µM and 10.2 µM; with HCC-2998 colon, 11.2 µM and 19 µM. In addition, the GI50 in the assay with EKVX NSCLC was 20.4 µM; with NCI-H522 lung it was 11.3 µM and 15.1 µM; in the assay with NCI-H460 lung, 15.2 µM and 19.2 µM; in the assay on LOX IMVI melanoma, 13.1 µM and 17.3 µM. Further, the TGI in the assay with HS 578T breast was 27 µM and 38.3 µM; in the assay with COLO 205 colon, 17.3 µM and 24.5 µM; in the assay on U251 CNS, 65 µM and 27.7 µM; with OVCAR-3 ovarian, 44.8 µM and 41.6 µM; in the assay with MALME-3M melanoma it was 19.9 µM and 24.3 µM; in the assay on HCC-2998 colon it was 22.6 µM and 36.7 µM. Further, the TGI in the assay with EKVX NSCLC is 65 µM; with NCI-H522 lung it was 23.7 µM and 32.9 µM; in the assay with NCI-H460 lung, 33.4 µM and 35.9 µM; in the assay with LOX IMVI melanoma, 24.5 µM and 36.4 µM.

Take `NS(=O)(=O)OC[C@H]1O[C@@H](n2cnc3c(N[C@H]4CCc5ccccc54)ncnc32)[C@H](O)[C@@H]1O`: the GI50 was 0.432 µM in the assay on HS 578T breast; 0.043 µM in the assay on COLO 205 colon; 0.0353 µM in the assay with U251 CNS; 0.0409 µM in the assay on OVCAR-3 ovarian; 0.195 µM with MALME-3M melanoma; 0.157 µM in the assay with HCC-2998 colon. For the same compound, the GI50 with EKVX NSCLC is 0.349 µM; in the assay with NCI-H522 lung, 0.0271 µM; with NCI-H460 lung it was 0.408 µM; with LOX IMVI melanoma, 0.0209 µM. Moreover, the TGI worked out at 6.93 µM with HS 578T breast; 0.22 µM in the assay on COLO 205 colon; 0.121 µM in the assay on U251 CNS; 0.145 µM with OVCAR-3 ovarian; 0.447 µM in the assay with MALME-3M melanoma; 0.331 µM in the assay on HCC-2998 colon. Moreover, the TGI turned out to be 9.07 µM with EKVX NSCLC, 0.192 µM with NCI-H522 lung, 2.11 µM in the assay with NCI-H460 lung and 0.0572 µM in the assay on LOX IMVI melanoma.

For `COc1ccc2c(c1)Cc1cc(N=[N+]([O-])c3ccc4c(c3)Cc3cc(OC)ccc3-4)ccc1-2`, the TGI was over 100 µM in the assay with HS 578T breast; 28.6 µM in the assay with COLO 205 colon; 30.8 µM in the assay with U251 CNS; over 100 µM in the assay with OVCAR-3 ovarian; over 100 µM with MALME-3M melanoma; 27.3 µM in the assay on HCC-2998 colon. The TGI was over 100 µM in the assay on EKVX NSCLC, 30.3 µM in the assay with NCI-H522 lung, over 100 µM in the assay on NCI-H460 lung and 97.7 µM with LOX IMVI melanoma.

Take `CN1CCN(c2nc(NCCNc3ccnc4cc(Cl)ccc34)c3ccccc3n2)CC1`: the GI50 is 2.74 µM in the assay on HS 578T breast; 0.974 µM with COLO 205 colon; 2.3 µM with U251 CNS; 2.21 µM with OVCAR-3 ovarian; 2 µM in the assay on MALME-3M melanoma; 3.11 µM in the assay on HCC-2998 colon. Moreover, the GI50 in the assay with EKVX NSCLC was 3.86 µM; with NCI-H522 lung, 1.64 µM; with NCI-H460 lung it was 1.7 µM; in the assay with LOX IMVI melanoma, 1.63 µM. Besides, the TGI in the assay with HS 578T breast amounted to 9.58 µM; with COLO 205 colon, 2.33 µM; with U251 CNS it was 10.1 µM; in the assay with OVCAR-3 ovarian, 7.44 µM; in the assay on MALME-3M melanoma, 3.76 µM; in the assay on HCC-2998 colon, 10.4 µM. Moreover, the TGI in the assay with EKVX NSCLC worked out at 17.3 µM; with NCI-H522 lung it was 3.8 µM; in the assay on NCI-H460 lung, 6.49 µM; in the assay on LOX IMVI melanoma, 3.34 µM.

As to `O=c1cc(N2CCOCC2)oc2c(-c3ccccc3)cccc12`, the GI50 in the assay with HS 578T breast was 3.16 µM; in the assay on U251 CNS, 11.1 µM; in the assay with OVCAR-3 ovarian, 4.48 µM; in the assay on MALME-3M melanoma, 4.46 µM; in the assay on HCC-2998 colon it was 5.61 µM; in the assay with EKVX NSCLC, 5.22 µM. For the same compound, the values for the GI50 with NCI-H522 lung, in the assay on NCI-H460 lung and with LOX IMVI melanoma were 4.96 µM, 6.13 µM and 4.34 µM, respectively. Also, the TGI was > 30.6 µM and 11.4 µM in the assay on HS 578T breast; 36.7 µM and 30.1 µM with COLO 205 colon; over 100 µM with U251 CNS; 40.3 µM and 43 µM with OVCAR-3 ovarian; > 41.4 µM and 5.6 µM with MALME-3M melanoma; 46.9 µM in the assay on HCC-2998 colon. Moreover, the TGI is > 71 µM and 23.2 µM in the assay on EKVX NSCLC; 23.2 µM and 19.3 µM with NCI-H522 lung; over 100 µM in the assay on NCI-H460 lung; > 68.3 µM and 18.4 µM in the assay on LOX IMVI melanoma.

With `COC(=O)c1ccc2c(c1)[n+](=O)c(C(C)=O)c(C(F)(F)F)n2[O-]`, the GI50 was 2.37 µM in the assay with HS 578T breast; 1.95 µM with COLO 205 colon; 1.8 µM with U251 CNS; 1.82 µM in the assay with OVCAR-3 ovarian; 1.96 µM in the assay on MALME-3M melanoma; 1.78 µM in the assay on HCC-2998 colon. Also, the GI50 was 1.94 µM in the assay on EKVX NSCLC, 1.66 µM in the assay with NCI-H522 lung, 1.81 µM with NCI-H460 lung and 1.7 µM in the assay with LOX IMVI melanoma. In addition, the TGI in the assay with HS 578T breast came to 5.84 µM; in the assay with COLO 205 colon, 3.95 µM; in the assay with U251 CNS, 3.25 µM; in the assay with OVCAR-3 ovarian it was 3.27 µM; in the assay with MALME-3M melanoma, 3.79 µM; with HCC-2998 colon, 3.18 µM. Besides, the TGI with EKVX NSCLC stood at 4.35 µM; in the assay with NCI-H522 lung, 3.28 µM; in the assay with NCI-H460 lung it was 3.45 µM; in the assay on LOX IMVI melanoma, 3.2 µM.

Take `COc1cc(Oc2cnc3cc(N)cc(N)c3n2)cc(OC)c1OC`: the GI50 with HS 578T breast is 37.9 µM; with COLO 205 colon, 27.8 µM; in the assay on U251 CNS, over 100 µM; with OVCAR-3 ovarian, 26.8 µM; with MALME-3M melanoma, 59.9 µM; with HCC-2998 colon, 15.6 µM. For the same compound, the GI50 is 61.4 µM in the assay on EKVX NSCLC, over 100 µM in the assay on NCI-H522 lung, 52 µM in the assay with NCI-H460 lung and 33.4 µM in the assay with LOX IMVI melanoma. Also, the TGI was over 100 µM with HS 578T breast; 71.6 µM with COLO 205 colon; over 100 µM with U251 CNS; over 100 µM in the assay with OVCAR-3 ovarian; over 100 µM with MALME-3M melanoma; 32.2 µM in the assay on HCC-2998 colon. Further, the TGI with EKVX NSCLC, in the assay on NCI-H522 lung, with NCI-H460 lung and with LOX IMVI melanoma was over 100 µM each time.

Regarding `CC(=N\O)/C(C)=N/O.CC(=N\O)/C(C)=N/O.[Pd]`, the GI50 with HS 578T breast was 1.94 µM; in the assay on COLO 205 colon it was 3.84 µM; in the assay on U251 CNS, 5.12 µM; in the assay with OVCAR-3 ovarian, 3.83 µM; with MALME-3M melanoma, 1.9 µM; with HCC-2998 colon, over 10 µM. For the same compound, the GI50 with EKVX NSCLC is 6.71 µM; in the assay on NCI-H522 lung it was 2.08 µM; in the assay with NCI-H460 lung, 9.28 µM; in the assay with LOX IMVI melanoma, 1.58 µM. The TGI with HS 578T breast was over 10 µM; in the assay on COLO 205 colon, over 10 µM; with U251 CNS, over 10 µM; in the assay with OVCAR-3 ovarian, over 10 µM; in the assay with MALME-3M melanoma, 4.53 µM; with HCC-2998 colon it was over 10 µM. For the same compound, the TGI is over 10 µM in the assay on EKVX NSCLC, 5.03 µM in the assay with NCI-H522 lung, over 10 µM with NCI-H460 lung and 3.16 µM with LOX IMVI melanoma.
